From patent publication US9102648B1, “Bioavailable diacylhydrazine ligands for modulating the expression of exogenous genes via an ecdysone receptor complex” (Intrexon Corporation, priority 2003, dated 2015)

How the values were obtained:
[1] = molecular target: GAL4 DBD-CfEcR(DEF)/VP16AD-MmRXRE (Choristoneura fumiferana, UniProt O77240); test: 13B3 Assay (CHO stable cell line, luciferase reporter); details: for Fold Induction, 13B3 Assay, 3.3 uM: 3.3 uM ligand; for Fold Induction, 13B3 Assay, 3.3 uM / Fold Induction, 13B3 Assay, 33 uM: RLU ligand treated / RLU DMSO treated cells; for Fold Induction, 13B3 Assay, 3.3 uM / Fold Induction, 13B3 Assay, 33 uM / EC50: average of two wells; for Fold Induction, 13B3 Assay, 33 uM: 33 uM ligand; for 13B3 assay Rel Max FI: maximum fold induction at any concentration relative to that of GS-E ligand, CHO 13B3 cells; for EC50: read-out: 13B3 EC50, CHO 13B3 stable cell line, luciferase reporter, 48 h
Method in brief: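 Ligands dosed at 8 levels from 33 to 0.01 μM (DMSO stocks diluted 300-fold) onto the 13B3 CHO line carrying GAL4-DBD/CfEcR-DEF, VP16/MmRXR-DE and a GAL4-responsive luciferase gene.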

[2] = molecular target: T1, Bombyx mori EcR (VP16 fusion, CVBE switch construct) (Bombyx mori, UniProt P49881); test: Z3 Assay (HEK-293 cells with CVBE and 6XEcRE LacZ, β-galactosidase reporter); details: for fold induction at 33 µM: HEK293, read-out: Fold Induction, Z3 Assay, 33 uM; for Fold Induction, Z3 Assay, 3.3 uM: 3.3 uM ligand; for Fold Induction, Z3 Assay, 3.3 uM / Fold Induction, Z3 Assay, 33 uM: ligand treated / DMSO treated cells; for Fold Induction, Z3 Assay, 3.3 uM / Fold Induction, Z3 Assay, 33 uM / EC50: average of two wells; for Fold Induction, Z3 Assay, 33 uM: 33 uM ligand; for Z3 assay Rel Max FI: maximum fold induction at any concentration relative to that of GS-E ligand; for Z3 assay Rel Max FI / EC50: HEK-293 Z3 cells; for EC50: read-out: Z3 assay EC50, β-galactosidase reporter
T1 sequence (P49881 86-606): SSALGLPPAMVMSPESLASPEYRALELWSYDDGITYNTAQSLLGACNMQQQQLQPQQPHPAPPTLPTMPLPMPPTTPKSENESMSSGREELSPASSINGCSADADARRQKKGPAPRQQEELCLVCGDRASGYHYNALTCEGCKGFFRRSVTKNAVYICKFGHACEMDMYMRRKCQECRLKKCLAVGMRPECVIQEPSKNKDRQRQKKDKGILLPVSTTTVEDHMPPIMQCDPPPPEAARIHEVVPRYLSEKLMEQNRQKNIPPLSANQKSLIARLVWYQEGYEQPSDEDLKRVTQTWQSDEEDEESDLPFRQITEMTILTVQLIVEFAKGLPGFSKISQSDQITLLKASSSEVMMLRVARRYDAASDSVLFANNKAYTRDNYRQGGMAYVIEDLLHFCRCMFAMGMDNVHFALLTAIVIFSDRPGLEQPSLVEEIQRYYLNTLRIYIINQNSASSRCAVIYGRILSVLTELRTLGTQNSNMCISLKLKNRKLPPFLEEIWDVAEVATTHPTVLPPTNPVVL
T1 sequence (P19793 1-462 partner): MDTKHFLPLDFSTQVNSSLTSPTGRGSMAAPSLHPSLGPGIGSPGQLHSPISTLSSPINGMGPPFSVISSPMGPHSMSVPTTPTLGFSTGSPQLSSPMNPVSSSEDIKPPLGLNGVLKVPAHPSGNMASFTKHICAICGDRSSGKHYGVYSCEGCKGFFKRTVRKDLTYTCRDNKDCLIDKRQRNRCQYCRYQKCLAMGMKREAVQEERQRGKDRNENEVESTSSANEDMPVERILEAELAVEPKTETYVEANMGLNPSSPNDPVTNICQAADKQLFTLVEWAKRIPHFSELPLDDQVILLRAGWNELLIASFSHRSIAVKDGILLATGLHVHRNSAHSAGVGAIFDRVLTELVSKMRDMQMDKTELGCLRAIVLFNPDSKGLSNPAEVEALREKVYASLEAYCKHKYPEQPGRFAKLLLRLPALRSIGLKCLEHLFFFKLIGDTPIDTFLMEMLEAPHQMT

[3] = molecular target: GAL4 DBD (1-147)-CfEcR(DEF)/VP16AD-βRXREF-LmUSPEF (Choristoneura fumiferana, UniProt O77240); test: cell-based; details: for 27-63 assay Rel Max FI: maximum fold induction at any concentration relative to that of GS-E ligand, CHO 27-63 cells; for fold induction at 33 µM: read-out: Fold Induction, 27-63 Assay, 33 uM
[4] = test system: mutated ecdysone receptor-based gene switch; test: In vivo SEAP induction, ligand by IP injection; set-up: species or system C57BL/6 mouse; details: IP 26 nmol ligand
Method: Applicants' ligands are useful in various applications including gene therapy, expression of proteins of interest in host cells, production of transgenic organisms, and cell-based assays. In vivo induction of a reporter enzyme with various ligands of the present invention was evaluated in a C57BL/6 mouse model system containing a gene switch.
Each element of the gene switch was on a separate plasmid. Receptor expression was under the control of a CMV promoter (SEQ ID NO: 15). Induction was evaluated by the amount of reporter protein expressed in the presence of ligand.
SEAP expression in serum of mice was evaluated after electroporation of the gene switch into mouse quadriceps. Mice were anesthetized with 2 μL/g of a mixture of ketamine (100 mg/mL) and xylazine (20 mg/mL). Animals were then shaved, DNA vectors injected into the muscle in a volume of 2×50 μL polyglutamic acid (12 mg/mL water), electrode conductivity gel applied, and an electrode caliber (1 cm×1 cm; model 384) was placed on hind leg. The muscle was electroporated with 200 V/cm, 8 times, for 20 msec/pulse, at 1 sec time intervals. The transverse electrical field direction was reversed after the animals received half of the pulses. Electroporation was performed with an ECM 830 electroporator from BTX Molecular Delivery Systems.
In some experiments mice received an intraperitoneal injection (IP) of 2.6 μmol of ligand in 50 μL of DMSO 3 days after electroporation of the gene switch. In other experiments the concentration of ligand was decrease to 26 nmol/50 μL of DMSO/mouse. SEAP expression was evaluated 2-11 days after ligand administration. In other experiments ligand was administered in rodent chow. The chow was prepared by dissolving 2 g of ligand in 20 mL of acetone and adding it to 1 kg of LabDiet 5010 autoclavable chow from Purina Mills. This was thoroughly mixed in a Hobart mixer and then mixed for an additional 15 min in a Cross Blend mixer. Animals received chow ad libitum for 1, 2, or 3 days. All values are the average from four animals. Background SEAP in sera from animals treated with vector alone without ligand addition was 0-11 ng/mL serum.
Mouse serum was obtained by centrifugation of blood acquired by retroorbital bleeding with a small glass capillary tube. SEAP quantification was determined using a Clontech Great Escape chemiluminescence kit and by comparison with the Clontech SEAP standard.
Table 9: In vivo evaluation of ligand-mediated induction of a mutated ecdysone receptor-based gene switch. SEAP expression in serum of mice was evaluated after electroporation of the gene expression cassettes into mouse quadriceps. Mice received an IP injection of 2.6 μmol of ligand 3 days after electroporation. SEAP expression was evaluated 2-11 days after ligand administration. Each dose group was composed of four animals. Percentage of GS™-E ligand induction was determined by averaging SEAP expression from four animals divided by the average SEAP expression induced with GS™-E ligand and then multiplying by 100.
Table 10: Induction of gene switch expression with low concentrations of ligand. SEAP expression in serum of mice was evaluated after electroporation of the gene expression cassettes into mouse quadriceps. Mice received an IP injection of 26 nmol of ligand or 130 nmol GS™-E ligand 3 days after electroporation. SEAP expression was evaluated 2-7 days after ligand administration. Values are the average from 4 animals.

Structure (SMILES) | Fold Induction, 13B3 Assay, 3.3 uM [1] | 13B3 assay Rel Max FI [1] | EC50 [1] [nM] | Fold Induction, Z3 Assay, 3.3 uM [2] | Fold Induction, Z3 Assay, 33 uM [2] | Z3 assay Rel Max FI [2] | EC50 [2] [nM] | further results
CCc1c(OC)cccc1C(=O)NN(C(=O)c1cnccn1)C(C)(C)C [RG-115550, pyrazine-2-carboxylic acid N-tert-butyl-N′-(2-ethyl-3-methoxy-benzoyl)-hydrazide] |  |  |  |  |  |  |  | fold induction at 3.3 µM ([1]; read-out: Fold Induction, 13B3 Assay, 3.3 uM): 1; fold induction at 33 µM [2]: 21
COc1cc(C(=O)N(NC(=O)c2ccc3c(c2C)OCCO3)C(C)(C)C)c([N+](=O)[O-])c(OC)c1C [RG-115609, 3,5-dimethoxy-4-methyl-2-nitrobenzoic acid N-t-butyl-N′-(5-methy-1benzo-1,4-dioxan-6-carbonyl)-hydrazide] | 558 | 0.883 | 13800 | 90 | 383 | 0.625 | 1390 | Fold Induction, 13B3 Assay, 33 uM [1]: 4217
CCc1c(OC)cccc1C(=O)NN(C(=O)c1cc(C)cc(C=NO)c1)C(C)(C)C [RG-115625] | 3 | 0.931 | 25300 | 265 | 1559 | 0.950 | 389 | Fold Induction, 13B3 Assay, 33 uM [1]: 715
CCc1c(OC)cccc1C(=O)NN(C(=O)c1cccc(F)c1F)C(C)(C)C [RG-115627] | 1291 | 0.854 | 921 | 378 | 362 | 0.840 | 813 | Fold Induction, 13B3 Assay, 33 uM [1]: 10058
CCc1c(OC)cccc1C(=O)NN(C(=O)c1cccc(Br)c1)C(C)(C)C#N [RG-115648] | 9 |  |  |  |  | 0.182 | 21400 | 
CCc1ccc(C(=O)NN(C(=O)c2cccc(C)c2)C(C)(C)C)c(F)c1 [RG-115674] | 442 | 0.875 | 1720 | 319 |  | 0.995 | 229 | 
CCc1c(C(=O)NN(C(=O)c2cc(F)c(Cl)cc2Cl)C(C)(C)C)ccc2c1OCCO2 [RG-115684] |  |  |  |  | 498 |  |  | Fold Induction, 13B3 Assay, 33 uM [1]: 151
CCc1c(OC)cccc1C(=O)NN(C(=O)c1cc(OC)c(C)c(OC)c1)C(C)(C)C#N [RG-115690] | 930 | 1.181 | 632 | 571 |  | 0.998 | 209 | 
CCc1c(OC)cccc1C(=O)NN(C(=O)c1nc(SC)cnc1Cl)C(C)(C)C [RG-115716] | 3 |  |  |  | 66 |  |  | 
CCc1c(OC)cccc1C(=O)NN(C(=O)c1ccc2nc[nH]c2c1)C(C)(C)C [RG-115719, 3H-benzoimidazole-5-carboxylic acid N-tert-butyl-N′-(2-ethyl-3-methoxy-benzoyl)-hydrazide] |  |  |  |  |  |  |  | fold induction at 33 µM ([1]; read-out: Fold Induction, 13B3 Assay, 33 uM): 1; fold induction at 33 µM [2]: 271
CCC(N(NC(=O)c1ccc2c(c1C)OCCO2)C(=O)c1cc(C)cc(C)c1)C(C)(C)C (stereo not shown) [RG-115856, 3,5-Dimethyl-benzoic acid N-(1-ethyl-2,2-dimethyl-propyl)-N′-(5-methyl-2,3-dihydro-benzo[1,4]dioxine-6-carbonyl)-hydrazide] |  |  |  |  |  |  |  | EC50 [3]: 3 nM; 27-63 assay Rel Max FI [3]: 0.879; fold induction at 33 µM [3]: 1760; Secreted Alkaline Phosphatase Day 2 [4]: 2,292 ng/ml mouse sera; Secreted Alkaline Phosphatase Day 3 [4]: 2,350 ng/ml mouse sera
CCC(N(NC(=O)c1ccc2c(c1C)OCCO2)C(=O)c1cc(OC)c(C)c(OC)c1)C(C)(C)C (stereo not shown) [RG-115857, 3,5-Dimethoxy-4-methyl-benzoic acid N-(1-ethyl-2,2-dimethyl-propyl)-N′-(5-methyl-2,3-dihydro-benzo[1,4]dioxine-6-carbonyl)-hydrazide] |  |  |  |  |  |  |  | EC50 [3]: 13 nM; 27-63 assay Rel Max FI [3]: 1.140; fold induction at 33 µM [3]: 328; Secreted Alkaline Phosphatase Day 2 [4]: 574 ng/ml mouse sera; Secreted Alkaline Phosphatase Day 3 [4]: 401 ng/ml mouse sera
CCc1c(C(=O)NN(C(=O)c2cc(C)cc(C)c2)C(CC)C(C)(C)C)ccc2c1OCCO2 (stereo not shown) [RG-115858, 3,5-dimethyl-benzoic acid N′-(5-ethyl-2,3-dihydro-benzo[1,4]dioxine-6-carbonyl)-N-(1-ethyl-2,2-dimethyl-propyl)-hydrazide] |  |  |  |  |  |  |  | EC50 [3]: 5 nM; 27-63 assay Rel Max FI [3]: 0.915; fold induction at 33 µM [3]: 182; Secreted Alkaline Phosphatase Day 2 [4]: 13,661 ng/ml mouse sera; Secreted Alkaline Phosphatase Day 3 [4]: 11,820 ng/ml mouse sera
CCCC(N(NC(=O)c1ccc2c(c1C)OCCO2)C(=O)c1cc(C)cc(C)c1)C(C)(C)C (stereo not shown) [RG-115864, 3,5-Dimethyl-benzoic acid N-(1-tert-butyl-butyl)-N′-(5-methyl-2,3-dihydro-benzo[1,4]dioxine-6-carbonyl)-hydrazide] |  |  |  |  |  |  |  | EC50 [3]: 4 nM; 27-63 assay Rel Max FI [3]: 0.979; fold induction at 33 µM [3]: 1260; Secreted Alkaline Phosphatase Day 2 [4]: 6,722 ng/ml mouse sera; Secreted Alkaline Phosphatase Day 3 [4]: 5,652 ng/ml mouse sera
